Results: the METLIN SMRT retention time set (Domingo-Almenara et al. 2019)

Assay: gradient 5% acetonitrile 3 min, to 50% in 2 min, to 85% in 15 min, held 3 min, 100 µL/min
Conditions: column: Zorbax Extend-C18 2.1 x 50 mm; eluents: water / acetonitrile, 0.1% formic acid
Outline: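 A Zorbax Extend-C18 column (2.1 × 50 mm, 1.8 μm) run at 100 μL/min with water and acetonitrile, both containing 0.1% formic acid, separated mixtures of ~100 pure standards. The HPLC was coupled to a quadrupole time-of-flight mass spectrometer operated in positive and negative ionization mode, with dead and dwell volumes of 40 μL and 900 μL. Each retention time was taken from a computationally picked adduct peak that was then manually inspected.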

COc1ccccc1-c1cnn2c(N3CCN(c4cccc(C)n4)CC3)cc(C)nc12
RP-LC retention time: 638 s

Cc1ccc(C(=O)Nc2ccc(S(N)(=O)=O)cc2)cc1Br
RP-LC retention time: 768 s

CCCNC(=O)C1CCN(c2nc3ccsc3c(=O)n2-c2cccc(OC)c2)CC1
RP-LC retention time: 675 s

CCN1CCN(c2nc(F)c3c(c2F)S(=O)(=O)CCN3C2CCCCC2)CC1
RP-LC retention time: 700 s

COc1ccc(Cl)cc1C(=O)NC1(c2nc(C)no2)CCCCC1
RP-LC retention time: 1010 s

CCN1CCn2cc(S(=O)(=O)NCc3ccccc3F)cc2C1=O
RP-LC retention time: 685 s

O=C(Cc1ccccc1F)NCCc1nc(-c2ccc3c(c2)OCO3)n[nH]1
RP-LC retention time: 687 s

COc1ccc(CNC(=O)c2cnc(N3CCC4(CC3)OCCO4)nc2N)c(OC)c1
RP-LC retention time: 640 s

O=c1cc(-c2ccncc2)nc(N2CCCC2)n1Cc1cccc(F)c1
RP-LC retention time: 1230 s

Cn1c(N2CCCC(C(=O)N3CCN(c4ncccn4)CC3)C2)cc(=O)n(C)c1=O (configuration not stated)
RP-LC retention time: 618 s

Cc1noc(C2CN(CCCc3ccccc3)CC23CCCC3)n1 (configuration not stated)
RP-LC retention time: 1020 s

CSc1ccc(CNC(=O)C2CCCN(c3ccc(=O)n(-c4ccc(C)c(Cl)c4)n3)C2)cc1 (configuration not stated)
RP-LC retention time: 1010 s

Cc1nn(CC(=O)NCCCN(C)Cc2ccccc2)c(=O)c2noc(C)c12
RP-LC retention time: 588 s

O=C(NCc1cccs1)C1CCCN(c2nnc3c(Cl)cccn23)C1 (configuration not stated)
RP-LC retention time: 684 s

CSCc1csc(NC(=O)C2CCCC2)n1
RP-LC retention time: 782 s

CCC(C(=O)NCCc1c[nH]c2ccc(OC)cc12)n1c2ccccc2c2cnn(C)c(=O)c21 (configuration not stated)
RP-LC retention time: 890 s

CC(C)C(=O)Nc1ccc(C2(C(=O)NCCN3CCc4ccccc4C3)CCCCC2)cc1
RP-LC retention time: 732 s

O=C(CC1CCN(C(=O)NCc2ccccc2)CC1)N1CCCCC1
RP-LC retention time: 703 s

COc1ccc(Cl)cc1N1CC(c2nc(-c3cccs3)no2)CC1=O (configuration not stated)
RP-LC retention time: 930 s

CC(C)NC(=O)C1CCN(C(=O)c2ncn3c2COC(c2ccc(Cl)cc2)C3)CC1 (configuration not stated)
RP-LC retention time: 679 s

O=C(CN1c2ccc(F)cc2-c2ccccc2S1(=O)=O)Nc1ccc(F)c(F)c1
RP-LC retention time: 974 s

O=C(Cn1ccn2nc(-c3ccccc3)c(CO)c2c1=O)NC1CCCC1
RP-LC retention time: 721 s

CC(=O)Nc1ccc(C2(C(=O)NCc3ccc4c(c3)OCO4)CCC2)cc1
RP-LC retention time: 730 s

COc1ccc(-n2ccc(=O)c(-c3nc(-c4ccc(OC)c(OC)c4)no3)n2)cc1
RP-LC retention time: 788 s

O=C(NCc1ccco1)c1nnn(-c2ccc(F)cc2)c1-c1ccncc1
RP-LC retention time: 726 s

CCC(=O)N(C1CCOCC1)C1CCN(S(=O)(=O)c2ccc(C(C)C)cc2)CC1
RP-LC retention time: 983 s

Fc1ccccc1-c1noc(NC2CCCC2)n1
RP-LC retention time: 929 s

Cn1nc(-c2nc(C3CC3)no2)c2c1CCN(C(=O)c1ccc(C(C)(C)C)cc1)C2
RP-LC retention time: 1290 s

CC(C)(Oc1ccc(Cl)cc1)C(=O)N1CCN(CCn2cccn2)CC1
RP-LC retention time: 598 s

CCN1C(=O)COc2ccc(-c3nc(NC(=O)c4ccc(F)cc4)sc3C)cc21
RP-LC retention time: 1050 s

Cc1ccccc1NC(=O)c1csc(-c2cn(C)c3ncccc23)n1
RP-LC retention time: 1020 s

C=CC(=O)N1C/C(=C\c2ccccc2)C(=O)/C(=C/c2ccccc2)C1
RP-LC retention time: 930 s

CN(CCc1noc(-c2ccc(C(=O)N3CCCC3)cc2)n1)C(=O)c1ccccc1Br
RP-LC retention time: 736 s

CC(C)CNC(=O)CCC1CCN(c2cc(NC3CC3)ncn2)CC1
RP-LC retention time: 615 s

Cc1nc(CC(=O)Nc2ccc(F)cc2Cl)cs1
RP-LC retention time: 845 s

O=c1oc2c(-c3ccc([N+](=O)[O-])cc3)cc(O)cc2s1
RP-LC retention time: 829 s

C=CCN(Cc1nc(-c2cccc(C)c2)no1)C(=O)Nc1ccccc1C
RP-LC retention time: 1080 s
